Test results reported in patent US8592152B2, “Gene detection assay for improving the likelihood of an effective response to an EGFR antagonist cancer therapy” (Genentech, Inc., priority 2000, dated 2013).

Test system: metastatic breast cancer
Assay: FISH/clinical outcome study: chemotherapy +/- Herceptin, 1st line therapy
Format: in vivo, human
Procedure: The Clinical Testing Assay (CTA) involves two separate IHC assays performed with either monoclonal antibodies 4D5 (after protease digestion of the formalin fixed sample) or CB11 (after heat treatment of the formalin fixed sample). Subjects were eligible if either assay was scored at 2+ or 3+. If both were performed, the final score was the higher of the two results. […] Thus, formalin-fixed cut sections stored between 2.5 and 4.5 years from 540 subjects provided the sample pool for this study.

CC(=O)O[C@H]1C(=O)[C@@]2(C)[C@H]([C@H](OC(=O)c3ccccc3)[C@]3(O)C[C@H](OC(=O)[C@H](O)[C@@H](NC(=O)c4ccccc4)c4ccccc4)C(C)=C1C3(C)C)[C@]1(OC(C)=O)CO[C@@H]1C[C@@H]2O [P, Paditaxol]
Response rate of newly defined populations (2+/3+ population (469)): 17
Survival of newly defined populations (2+/3+ population (469)): 18 months
Time to progression of newly defined populations (2+/3+ population (469)): 2.7 months
Response rate of newly defined populations (3+ population (349)): 17
Survival of newly defined populations (3+ population (349)): 18 months
Time to progression of newly defined populations (3+ population (349)): 3.0 months
Response rate of newly defined populations (FISH+ population (240)): 14
Survival of newly defined populations (FISH+ population (240)): 14 months
Time to progression of newly defined populations (FISH+ population (240)): 3.2 months

adrinomycin and cyclophosphamide [AC]
Response rate of newly defined populations (2+/3+ population (469)): 42
Survival of newly defined populations (2+/3+ population (469)): 21 months
Time to progression of newly defined populations (2+/3+ population (469)): 6.1 months
Response rate of newly defined populations (3+ population (349)): 42
Survival of newly defined populations (3+ population (349)): 21 months
Time to progression of newly defined populations (3+ population (349)): 6.0 months
Response rate of newly defined populations (FISH+ population (240)): 40
Survival of newly defined populations (FISH+ population (240)): 20 months
Time to progression of newly defined populations (FISH+ population (240)): 6.2 months
